Test results: patent US20190224192A1, “Stable Pharmaceutical Composition of Vortioxetine Hydrobromide” (Cipla Limited, priority 2016, published 2019)
Counter-ions that a name gives are not always drawn.

Assays:
[1] = in vitro dissolution of premix compared to beta form; type: physicochemical; conditions: unit assumed
Description: FIG. 2: FIGS. 2a and 2b show dissolution data of a Vortioxetine hydrobromide premix according to the present invention compared to the beta form of Vortioxetine hydrobromide.
In one aspect, the present invention provides a Vortioxetine hydrobromide premix having stability and dissolution properties such that it can be easily formulated into pharmaceutically useful composition.

[2] = cited from earlier work
[3] = solid state form stability (conversion of form on stability); type: physicochemical
Description: WO 2016/062860 relates to a pharmaceutical composition comprising amorphous Vortioxetine hydrobromide, a process for the preparation thereof, use thereof and a method for stabilizing Vortioxetine hydrobromide in a pharmaceutical composition.
However, this technique is not desirable in cases where the melting point of the drug to be converted is very high. For the process to work, it is required that the drug undergoes complete melting, which would lead to complete conversion. The melting point of the drug Vortioxetine is very high, in order of 227-230 degrees. The normal temperatures that are employed in the laboratory is around 180 C, maximizing to 200 C. The HME in this case was attempted with Klucel and Kollidone VA 64. […] This could be attributed to the incomplete melting of the drug and thus incomplete form conversion.

SMILES	in vitro dissolution ([1]; Time in min 15)	in vitro dissolution ([1]; Time in min 30)	in vitro dissolution ([1]; Time in min 60)	in vitro dissolution ([1]; Time in min 120)	in vitro dissolution ([1]; Time in min 240)	in vitro dissolution ([1]; Time in min 480)	in vitro dissolution ([1]; Time in min 600)	in vitro dissolution ([1]; Time in min 720)	aqueous solubility [2]	solid state form conversion on stability [3]
Br.Cc1ccc(Sc2ccccc2N2CCNCC2)c(C)c1 [Beta Form, Vortioxetine hydrobromide]	14%	20%	29%	37%	49%	61%	63%	63%	about 1.2 mg/ml	–
Cc1ccc(Sc2ccccc2N2CCNCC2)c(C)c1 [amorphous Vortioxetine hydrobromide, Vortioxetine hydrobromide]	–	–	–	–	–	–	–	–	–	gets converted to a more stable crystalline form
